The values that follow are results of earlier work, collected in patent US20240207481A1, “KIT OF GEL-FORMING SOLUTIONS INTENDED FOR PREPARATION OF HYDROGEL BASED ON COVALENTLY CROSSLINKED HYDROXYPHENYL DERIVATIVE OF HYALURONAN FOR PREVENTION OF POSTOPERATIVE COMPLICATIONS RELATED TO FORMATION OF COLORECTAL ANASTOMOSIS, USE OF KIT, METHOD OF PREPARATION OF HYDROGEL AND USE THREREOF” (CONTIPRO A.S., priority 2020, published 2024).

With `Oc1cc(Cl)ccc1Oc1ccc(Cl)cc1Cl` [Triclosan, 2,4,4′-trichloro-2′-hydroxydiphenyl ether], the solubility in water entry was “poorly soluble”. The “solubility in polar organic solvents” value (ethanol, chloroform, isopropanol) was “well soluble”.
